Source: patent US8067039B2, “Extract of plant Dendrobii caulis and preparing process thereof” (National Yang-Ming University, priority 2003, dated 2011)

Test system: RPE cell
Test: Proteolytic activity of cultured RPE cell extracts on AGE-BSA (electrophoresis, ImageQuant)
Format: cell-based, bovine
Conditions: 50 ng/ml HGF
Method: 1×10^6 RPE cells are seeded into the 96-well microplate, containing 10% FCS in DMEM, at 37° C., supplied with 5% CO2. After incubation of 48 hrs, five sets of experiment are treated with the Dendrobii Caulis crude extract, in which each set of experiment includes two microplates for different treating time. After treating for 36 or 48 hrs, 0.01% EDTA is added into the microplate for harvesting the cells, and then the cells are suspended in the […]. Then, the cell solution is centrifuged for 5 min at 1200 rpm, and the cells are suspended back into 10 ml DEME twice. Then, the cell solution is centrifuged again, and is suspended back again with the 0.7 ml Homogenization buffer (50 mM sodium acetate buffer, pH4.5, 1 mM DTT, 0.15M NaCl, 3 mM NaN3) containing 0.1% TritonX-100. Then, the cell solution is vibrated by a sonicator for 15 sec, four cycles, for breaking the cell completely. […] The protein concentration is detected. […]
1×10^6 RPE cells are seeded into the 96-well microplate, containing 10% FCS in DMEM, at 37° C., supplied with 5% CO2. […] After treating for 36 or 48 hrs, 0.01% EDTA is added into the microplate for harvesting the cells, and then the cells are suspended in the DMEM and the cell number is counted. […]

HGF: hepatocyte growth factor, used at 50 ng/ml as comparison treatment
proteolytic activity of cultured RPE cell vs control set (48 hours, FIG. 32): a little bit greater
amount of AGE-BSA (FIG. 33): obviously decreased
